# Data published in ChEMBL document CHEMBL6071160, “Identification of a novel 10-hydroxyevodiamine prodrug as a potent topoisomerase inhibitor with improved aqueous solubility for treatment of hepatocellular carcinoma” (Eur J Med Chem, 2024).
# Activity calls are given as the source filed them. The calls are words filed in the database; no cut-off is given here.
# Legend:
# [1] = tested on: Huh-7; test: Induction of apoptosis in human Huh-7 cells assessed as ROS generation by measuring DCFH2-DA stained cells at 40 nM measured after 24 hrs […] (reference value: 0.45%); type: functional
# [2] = tested on: SK-HEP1; test: Inhibition of cell migration in human SK-HEP1 cells at 40 nM measured for 24 hrs by scratch wound healing assay; type: functional, cell-based
# [3] = tested on: SK-HEP1; test: Induction of cell cycle arrest in human SK-HEP1 cells assessed as accumulation of cells at G1 phase 40 nM measured after 24 hrs by flow cytometric assay (reference value: 47.55%); type: functional
# [4] = tested on: Huh-7; test: Inhibition of cell migration in human Huh-7 cells at 40 nM measured for 24 hrs by scratch wound healing assay; type: functional, cell-based
# [5] = tested on: Huh-7; test: Induction of apoptosis in human Huh-7 cells assessed as loss of mitochondrial membrane potential by measuring JC-1 stained cells at 20 nM measured after 24 hrs by JC-1 staining based flow cytometry (reference value: 2.27%); type: functional
# [6] = tested on: Huh-7; test: Induction of apoptosis in human Huh-7 cells assessed as loss of mitochondrial membrane potential by measuring JC-1 stained cells at 40 nM measured after 24 hrs by JC-1 staining based flow cytometry (reference value: 2.27%); type: functional
# [7] = tested on: SK-HEP1; test: Induction of apoptosis in human SK-HEP1 cells assessed as loss of mitochondrial membrane potential by measuring JC-1 stained cells at 20 nM measured after 24 hrs by JC-1 staining based flow cytometry (reference value: 0.49%); type: functional
# [8] = tested on: SK-HEP1; test: Induction of apoptosis in human SK-HEP1 cells assessed as viable cells at 80 nM measured after 24 hrs by Annexin-V-FITC/PI analysis (reference value: 97.20%); type: functional; settings: read-out: Activity
# [9] = tested on: Huh-7; test: Induction of apoptosis in human Huh-7 cells assessed as viable cells at 40 nM measured after 24 hrs by Annexin-V-FITC/PI analysis (reference value: 97.46%); type: functional; settings: read-out: Activity
# [10] = tested on: Huh-7; test: Induction of apoptosis in human Huh-7 cells assessed as early apoptotic cells at 40 nM measured after 24 hrs by Annexin-V-FITC/PI analysis (reference value: 1.04%); type: functional
# [11] = Toxicity in BALB/c nude mouse subcutaneously injected with human Huh-7 cells assessed as changes in liver tissue at 10 mg/kg, ip administered once daily measured after 14 days by H and E staining based assay; type: organism-based; settings: in vivo, 336 h, time 14 day
# [12] = Aqueous solubility of the compound […] measured after 72 hrs in shaking by HPLC analysis; type: physicochemical
# [13] = tested on: SK-HEP1; test: Induction of apoptosis in human SK-HEP1 cells assessed as late apoptotic cells at 80 nM measured after 24 hrs by Annexin-V-FITC/PI analysis (reference value: 0.64%); type: functional
# [14] = target: DNA topoisomerase II (Homo sapiens) (UniProt P11388+Q02880); test: Inhibition of DNA topoisomerase 2 (unknown origin) assessed as relaxation of supercoiled plasmid pBR322 DNA at 25 to 100 uM incubated for 15 mins measured after 30 mins addition of ethidium bromide by agarose gel electrophoresis; type: protein assay; settings: dose 25-100 µM
# [15] = Toxicity in BALB/c nude mouse subcutaneously injected with human Huh-7 cells assessed as changes in lung tissue at 10 mg/kg, ip administered once daily measured after 14 days by H and E staining based assay; type: organism-based; settings: in vivo, 336 h, time 14 day
# [16] = tested on: SK-HEP1; test: Induction of apoptosis in human SK-HEP1 cells assessed as necrotic cells at 80 nM measured after 24 hrs by Annexin-V-FITC/PI analysis (reference value: 0.70%); type: functional
# [17] = tested on: HepG2; test: Antiproliferative activity against human HepG2 cells assessed as inhibition of cell proliferation incubated for 72 hrs by MTT assay; type: functional, cell-based; settings: HepG2, 72 h
# [18] = Toxicity in BALB/c nude mouse subcutaneously injected with human Huh-7 cells assessed as changes in heart tissue at 10 mg/kg, ip administered once daily measured after 14 days by H and E staining based assay; type: organism-based; settings: in vivo, 336 h, time 14 day
# [19] = tested on: Huh-7; test: Induction of apoptosis in human Huh-7 cells assessed as necrotic cells at 20 nM measured after 24 hrs by Annexin-V-FITC/PI analysis (reference value: 0.27%); type: functional
# [20] = tested on: Huh-7; test: Inhibition of cell invasion in human Huh-7 cells assessed as decrease in number of cells migration into lower compartment at 40 nM measured after 24 hrs by transwell assay; type: functional, cell-based
# [21] = tested on: Huh-7; test: Induction of apoptosis in human Huh-7 cells assessed as ROS generation by measuring DCFH2-DA stained cells at 20 nM measured after 24 hrs […] (reference value: 0.45%); type: functional
# [22] = tested on: SK-HEP1; test: Induction of apoptosis in human SK-HEP1 cells assessed as viable cells at 40 nM measured after 24 hrs by Annexin-V-FITC/PI analysis (reference value: 97.20%); type: functional; settings: read-out: Activity
# [23] = Antiproliferative activity against human Doxorubicin-resistant SMMC-7721 cell assessed as inhibition of cell proliferation incubated for 72 hrs by MTT assay; type: functional, cell-based; settings: SMMC-7721, 72 h
# [24] = tested on: Huh-7; test: Induction of cell cycle arrest in human Huh-7 cells assessed as accumulation of cells at G2 phase 80 nM measured after 24 hrs by flow cytometric assay (reference value: 13.66%); type: functional
# [25] = tested on: Huh-7; test: Induction of cell cycle arrest in human Huh-7 cells assessed as accumulation of cells at G2 phase 40 nM measured after 24 hrs by flow cytometric assay (reference value: 13.66%); type: functional
# [26] = tested on: SK-HEP1; test: Inhibition of cell invasion in human SK-HEP1 cells assessed as decrease in number of cells migration into lower compartment at 10 nM measured after 24 hrs by transwell assay; type: functional, cell-based
# [27] = tested on: Huh-7; test: Induction of apoptosis in human Huh-7 cells assessed as viable cells at 20 nM measured after 24 hrs by Annexin-V-FITC/PI analysis (reference value: 97.46%); type: functional; settings: read-out: Activity
# [28] = tested on: SK-HEP1; test: Induction of apoptosis in human SK-HEP1 cells assessed as loss of mitochondrial membrane potential by measuring JC-1 stained cells at 80 nM measured after 24 hrs by JC-1 staining based flow cytometry (reference value: 0.49%); type: functional
# [29] = tested on: Huh-7; test: Inhibition of cell migration in human Huh-7 cells at 20 nM measured for 24 hrs by scratch wound healing assay; type: functional, cell-based
# [30] = tested on: SK-HEP1; test: Induction of cell cycle arrest in human SK-HEP1 cells assessed as accumulation of cells at G2 phase 40 nM measured after 24 hrs by flow cytometric assay (reference value: 22.41%); type: functional
# [31] = Toxicity in BALB/c nude mouse subcutaneously injected with human Huh-7 cells assessed as change in platelet level at 10 mg/kg, ip administered once daily measured after 14 days; type: organism-based; settings: in vivo, 336 h, time 14 day
# [32] = tested on: Huh-7; test: Induction of cell cycle arrest in human Huh-7 cells assessed as accumulation of cells at S phase 80 nM measured after 24 hrs by flow cytometric assay (reference value: 23.33%); type: functional
# [33] = tested on: Huh-7; test: Induction of apoptosis in human Huh-7 cells assessed as loss of mitochondrial membrane potential by measuring JC-1 stained cells at 80 nM measured after 24 hrs by JC-1 staining based flow cytometry (reference value: 2.27%); type: functional
# [34] = tested on: Huh-7; test: Induction of apoptosis in human Huh-7 cells assessed as necrotic cells at 40 nM measured after 24 hrs by Annexin-V-FITC/PI analysis (reference value: 0.27%); type: functional
structure (smiles),measurement,setting,value
C[N+](C)(C)CCC(=O)Oc1ccc2[nH]c3c(c2c1)CCN1C(=O)c2cc(F)cc(F)c2N(c2cccc(F)c2)C31.[I-] (centres undefined),Activity,[1],1.09%
same,inhibition,[2],Active
same,Activity,[3],43.86%
same,inhibition,[4],Active
same,Activity,[5],2.23%
same,Activity,[6],3.05%
same,Activity,[7],0.78%
same,viability at 0.08 µM,[8],64.7%
same,viability at 0.04 µM,[9],94.2%
same,Activity,[10],2.84%
same,Activity,[11],Non-Toxic
same,solubility thermodynamic at 72 h,[12],967 µg/mL
same,Activity,[13],11.59%
same,inhibition,[14],Active
same,Activity,[15],Non-Toxic
same,Activity,[16],1.15%
same,IC50,[17],90 nM
same,Activity,[18],Non-Toxic
same,Activity,[19],0.11%
same,inhibition,[20],Active
same,Activity,[21],0.73%
same,viability at 0.04 µM,[22],93.1%
same,IC50,[23],110 nM
same,Activity,[24],86.5%
same,Activity,[25],11.72%
same,inhibition,[26],Active
same,viability at 0.02 µM,[27],96.6%
same,Activity,[28],18.32%
same,inhibition,[29],Active
same,Activity,[30],24.99%
same,Activity,[31],Non-Toxic
same,Activity,[32],6.71%
same,Activity,[33],12.52%
same,Activity,[34],0.04%
